Measured values taken from publication PMC6112376, “Comprehensive Analyses and Prioritization of Tox21 10K Chemicals Affecting Mitochondrial Function by in-Depth Mechanistic Studies” (Environmental Health Perspectives, 2018).
Like-named read-outs stand apart in the source and are kept apart here.

Tests used:
[1] = system: isolated rat liver mitochondria; experiment: Oxygen consumption, Clark-type oxygen electrode; format: biochemical; details: for I-ADP, % of control (O2 consumption rate): glutamate/malate driven state 3 respiration; for I-ADP, % of control (O2 consumption rate) / I-sub, % of control (O2 consumption rate) / II-ADP, % of control (O2 consumption rate) / II-sub, % of control (O2 consumption rate): isolated rat liver mitochondria; for I-sub, % of control (O2 consumption rate): glutamate/malate driven state 4 respiration; for II-ADP, % of control (O2 consumption rate): succinate-driven state 3 respiration; for II-sub, % of control (O2 consumption rate): succinate-driven state 4 respiration; for Potential Mechanism: mitochondrial respiration in isolated rat liver mitochondria, Clark type oxygen electrode, over tested concentrations
[2] = system: HepG2 cells; details: cited from earlier work; for IC50: read-out: MMP assays IC50 (µM) qHTS-HepG2
[3] = system: HepG2 cells; experiment: cells; details: Homo sapiens; for IC50: HepG2, read-out: MMP assays IC50 (µM) HepG2; for Emax: HepG2, read-out: MMP assays efficacy (%) HepG2
[4] = system: Caenorhabditis elegans strain PE255; experiment: In vivo C. elegans ATP status assay
[5] = system: rat primary hepatocytes; experiment: MMP assay in rat primary hepatocytes; details: for IC50: Rattus norvegicus, Hepatocyte, read-out: MMP assays IC50 (µM) Rat Hepatocytes; for MMP assays efficacy (%) Rat Hepatocytes: mean ± SD of three experiments
[6] = system: Caenorhabditis elegans (Bristol N2); experiment: C. elegans larval development and growth assay; details: for minimal effective concentration: Caenorhabditis elegans, read-out: LEC EXT: lowest effect concentration for extinction, a measure of nematode size

Structure (SMILES)	I-ADP, % of control (O2 consumption rate) ([1]; 20 µM)	I-sub, % of control (O2 consumption rate) ([1]; 20 µM)	II-ADP, % of control (O2 consumption rate) ([1]; 20 µM)	II-sub, % of control (O2 consumption rate) ([1]; 20 µM)	I-ADP, % of control (O2 consumption rate) ([1]; 100 µM)	I-sub, % of control (O2 consumption rate) ([1]; 100 µM)	II-ADP, % of control (O2 consumption rate) ([1]; 100 µM)	II-sub, % of control (O2 consumption rate) ([1]; 100 µM)	Potential Mechanism [1]	MMP assays efficacy (%) qHTS-HepG2 [2] [%]	IC50 [2] [µM]	IC50 [3] [µM]	Emax [3] [%]	LUM: mean difference in luminescence (ATP content) relative to plate controls ([4]; 0.5 µM)	LUM: mean difference in luminescence (ATP content) relative to plate controls ([4]; 1 µM)	LUM: mean difference in luminescence (ATP content) relative to plate controls ([4]; 5 µM)	LUM: mean difference in luminescence (ATP content) relative to plate controls ([4]; 10 µM)	LUM: mean difference in luminescence (ATP content) relative to plate controls ([4]; 25 µM)	LUM: mean difference in luminescence (ATP content) relative to plate controls ([4]; 50 µM)	LUM: mean difference in luminescence (ATP content) relative to plate controls ([4]; 75 µM)	further results
Cc1cc(Cc2cc(C)cc(C(C)(C)C)c2O)c(O)c(C(C)(C)C)c1	103 (50.8) % of control	116 (18.6) % of control	101 (78.4) % of control	103 (31.4) % of control	100 (28.6) % of control	244 (29.2) % of control	91 (33.1) % of control	184 (27.2) % of control	Uncoupler	-96±2	1.35 ± 0.26	2	97	-0.1638	-0.2926	-0.4173	-0.05227	0.3804	0.9583	0.4391	LUM: mean difference in luminescence (ATP content) relative to plate controls ([4]; 100 µM): 0.9663; minimal effective concentration ([4]; Caenorhabditis elegans, read-out: LEC LUM: lowest effect concentration for luminescence, a measure of nematode ATP content): 50 µM; IC50 [5]: 3.71 ± 0.47 µM; MMP assays efficacy (%) Rat Hepatocytes [5]: -125±63%; EXT: mean difference in nematode size relative to plate controls ([6]; 0.5 µM): 0.1192; EXT: mean difference in nematode size relative to plate controls ([6]; 1 µM): 0.1294; EXT: mean difference in nematode size relative to plate controls ([6]; 5 µM): 0.8511; EXT: mean difference in nematode size relative to plate controls ([6]; 10 µM): 1.077; EXT: mean difference in nematode size relative to plate controls ([6]; 25 µM): 1.41; EXT: mean difference in nematode size relative to plate controls ([6]; 50 µM): 2.096; EXT: mean difference in nematode size relative to plate controls ([6]; 75 µM): 2.103; EXT: mean difference in nematode size relative to plate controls ([6]; 100 µM): 2.175; minimal effective concentration [6]: 5 µM
CCc1cc(Cc2cc(CC)cc(C(C)(C)C)c2O)c(O)c(C(C)(C)C)c1	96 (47.4) % of control	105 (16.9) % of control	100 (77.8) % of control	97 (29.7) % of control	121 (34.8) % of control	175 (20.9) % of control	98 (35.6) % of control	134 (19.8) % of control	Uncoupler	-111±18	1.22 ± 0.73	2	90	-0.0103	-0.09559	-0.6519	-0.6136	-0.3378	-0.154	0.1094	LUM: mean difference in luminescence (ATP content) relative to plate controls ([4]; 100 µM): 0.04601; IC50 [5]: 5.01 ± 4.35 µM; MMP assays efficacy (%) Rat Hepatocytes [5]: -78±36%; EXT: mean difference in nematode size relative to plate controls ([6]; 0.5 µM): 0.1174; EXT: mean difference in nematode size relative to plate controls ([6]; 1 µM): 0.117; EXT: mean difference in nematode size relative to plate controls ([6]; 5 µM): 0.5074; EXT: mean difference in nematode size relative to plate controls ([6]; 10 µM): 0.7525; EXT: mean difference in nematode size relative to plate controls ([6]; 25 µM): 0.8303; EXT: mean difference in nematode size relative to plate controls ([6]; 50 µM): 1.425; EXT: mean difference in nematode size relative to plate controls ([6]; 75 µM): 1.246; EXT: mean difference in nematode size relative to plate controls ([6]; 100 µM): 1.387; minimal effective concentration [6]: 5 µM
